Laboratory results published in PMC4122495, “Small Molecule Deubiquitinase Inhibitors Promote Macrophage Anti-Infective Capacity” (PLoS ONE, 2014).
Converted amounts (≈) assume the structure as drawn. “Also recorded” adds a separate entry of the source. Read-outs that look alike come from different tables or passages of the source.

Columns and labels:
L. monocytogenes [1] = experiment: Bacterial growth curve in BHI broth culture; assay type: cell-based, Listeria monocytogenes 10403S; conditions: 5 µM in BHI broth; for effect on Listeria growth in broth culture: absence of host cells, up to 8 h
Procedure: For bacterial growth curve in broth culture, an overnight culture of L. monocytogenes was back-diluted 1∶50 into BHI broth in the presence of 5 µM of compounds 1 to 4, 2.5 µM of compound 9 or equivalent volume of DMSO and incubated statically at 30°C for up to 8 h. At indicated time points (0, 2, 4, 6 and 8 h), a 50 µl-aliquot of bacteria was serially diluted and plated on LB agar to determine the number of CFU. To test the bactericidal properties of compound 9, an overnight culture of L. monocytogenes was back-diluted 1∶50 into BHI broth and allowed to grow at 37°C with shaking until an optical density at 600 nm (OD600) of ∼0.6–0.7 was obtained. Bacteria were then exposed to 1, 2.5 or 5 µM of compound 9 or equivalent volume of DMSO for 2 h at 4°C. After incubation, bacteria were serially diluted and plated on LB agar to determine CFU.

L. monocytogenes [2] = experiment: L. monocytogenes intracellular growth assay in RAW264.7 macrophages; assay type: cell-based, Listeria monocytogenes 10403S; design: decrease in Listeria intracellular viability: concentration or dose not given beside the values; conditions: for EC50: Listeria monocytogenes, RAW264.7 pre-treated with varying concentrations, then infected (MOI 1), intracellular CFU at 8 h post-infection, non-linear regression; for decrease in Listeria intracellular viability: RAW264.7 pre-treated at each compound's working condition (Fig. 2B, 5B); for decrease in Listeria intracellular viability / effect on L.m. intracellular growth (in words) / Decrease intracellular listeria viability (%): 8 h post-infection; for decrease in Listeria intracellular viability / Decrease intracellular listeria viability (%): vs DMSO; for effect on L.m. intracellular growth (in words): RAW264.7 pre-treated with compound; for Decrease intracellular listeria viability (%): conditions of Figure 2B and Figure 5B, maximal effective drug concentration used
Procedure: RAW264.7 cells were cultured at an initial density of 4×10^6 cells per 24-well plate and allowed to adhere overnight. Macrophages were treated with 2.5 or 5 µM of DUB inhibitors dissolved in dimethyl sulfoxide (DMSO) for 0.5 or 1 h or with equivalent volume of DMSO (vehicle control) at 37°C. For dose-response curves, macrophages were incubated with 5, 2.5, 1 and 0.5 µM of compounds 1, 3 and 4 or 2.5, 2, 1 and 0.5 µM of compounds 2 and 9 for 0.5 h or 1 h at 37°C. DUB inhibitors were removed from cell culture prior to infection by changing the medium. Macrophages were infected with L. monocytogenes at a multiplicity of infection (MOI) of 1 for 0.5 h at 37°C. The inoculum was removed by washing infected cells three times with Dulbecco’s phosphate-buffered saline (PBS), and the cells were incubated in medium containing 10 µg/ml of gentamicin to kill extracellular bacteria for the duration of the experiment. At 8 h post-infection, cells were lysed in 1 ml 0.1% Triton X-100, serially diluted and plated on Luria-Bertani (LB) agar to enumerate the number of colony forming units (CFU). CFU were counted using the Acolyte SuperCount (Microbiology International, Frederick, MD) plate reader and software. Results were normalized to DMSO-treated cells.
Supplementary file pone.0104096.s001.tif: Figure S1 Dose-response curves for selected compounds. RAW264.7 cells were incubated with DMSO (equivalent volume) or the varying concentrations of WP1130-derivatives for 0.5 h (compounds 1, 2, 4 and 9) or 1 h (compound 3). After incubation, the medium was removed, and cells were infected at 37°C for 0.5 h at an MOI of 1 with L. monocytogenes in the absence of additional drugs. Following the 0.5 h infection, cells were washed and gentamycin (10 µg/ml) was added to kill extracellular bacteria. Intracellular bacteria were enumerated at 8 h post-infection. The data represent percent of Listeria intracellular growth compared to DMSO-treated cells from three independent experiments performed in triplicate. Non-linear regression curves were performed using the GraphPad Prism software. (TIF) Click here for additional data file.

RAW264.7 cells = experiment: WST-1 cell viability assay, conditions mimicking the bacterial infection protocol; assay type: cell-based, murine; conditions: then 8 h
Procedure: For cell viability assays in conditions that mimicked the bacterial infection protocol, RAW264.7 cells were cultured at an initial density of 4×10^6 cells per 96-well plate. Cells were treated with 2.5 or 5 µM DUB inhibitors dissolved in DMSO for 0.5 h or 1 h or with equivalent volume of DMSO. DUB inhibitors were removed after treatment by washing three times with PBS, and cells were incubated in culture media for 6.5 h at 37°C. The WST-1 reagent (Roche, San Francisco, CA), which measures mitochondrial dehydrogenase activity, was diluted 1 in 10 in media and cells were incubated at 37°C for an additional 1.5 h. The optical density at 440 nm (OD440) and 600 nm (OD600) was determined and results were normalized to DMSO-treated cells.

L. monocytogenes [3] = tested on: L. monocytogenes; design: method as in PMID 21911458; conditions: absence of host cells; cited from earlier work
USP9x = tested on: USP9x; design: method as in Donato, N. J., manuscript in preparation; conditions: cell-based assay; ref Donato, N. J., manuscript in preparation; read-out: IC50 against USP9x; cited from earlier work
MNV-1 = tested on: MNV-1; design: method as in PMID 22792064; conditions: pre-treatment of RAW264.7 cells; cited from earlier work
[4] = Aqueous kinetic solubility; assay type: physicochemical; conditions: aqueous (not further specified)

EC50 (L. monocytogenes [2]) [nM] | SMILES | effect on Listeria growth in broth culture (L. monocytogenes [1]) | decrease in Listeria intracellular viability (L. monocytogenes [2]) [%] | effect on L.m. intracellular growth (in words) (L. monocytogenes [2]) | Decrease intracellular listeria viability (%) (L. monocytogenes [2]) | cellular toxicity (WST-1 viability) (RAW264.7 cells; 5 µM, 1 h pre-treatment) | other results
1100 | CCC[C@H](NC(=O)/C(C#N)=C/c1cccc(Cl)n1)c1ccccc1 [Compound 1] | slight decrease in growth rate | 54.7 | Decrease L.m. intracellular growth | 54.7 | – | effect on total CFU per ml by 8 h in broth culture (L. monocytogenes [1]): without affecting the total number of colony forming unit (CFU) per ml by 8 h
– | CCCC(NC(=O)/C(C#N)=C/c1cccc(F)n1)c1ccc(OCCN2CCOCC2)cc1 (centres unmarked) [Compound 6] | – | – | No effect on L.m. intracellular growth | – | no significant toxicity | effect on L.m. intracellular growth (in words) (L. monocytogenes [2]; listed as compound 6): no significant effect on Listeria intracellular growth; also recorded: complete loss of activity
– | CCCC(NC(=O)/C(C#N)=C/c1cccnc1F)c1ccc(OCCN2CCOCC2)cc1 (centres unmarked) [Compound 7] | – | – | No effect on L.m. intracellular growth | – | no significant toxicity | effect on L.m. intracellular growth (in words) (L. monocytogenes [2]; listed as compound 7): no significant effect on Listeria intracellular growth; also recorded: complete loss of activity
2880 | CCC[C@H](NC(=O)/C(C#N)=C/c1cccc(F)n1)c1ccccc1 [Compound 4] | no effect | 29.2 | Decrease L.m. intracellular growth | 29.2 | – | –
– | CCC[C@H](NC(=O)/C=C/c1cccc(Br)n1)c1ccccc1 [Compound 8] | – | – | No effect on L.m. intracellular growth | – | no significant toxicity | effect on L.m. intracellular growth (in words) (L. monocytogenes [2]; listed as compound 8): no significant effect on Listeria intracellular growth; also recorded: no activity
1760 | CCC[C@@H](NC(=O)/C(C#N)=C/c1cccc(Br)n1)c1ccccc1 [Compound 2] | slight decrease in growth rate | 44 | Decrease L.m. intracellular growth | 44.0 | – | cellular toxicity (WST-1 viability) (RAW264.7 cells; pre-treatment 0.5 or 1 h, led to working concentration of 2.5 µM for 0.5 h): slight increase in toxicity; effect on total CFU per ml by 8 h in broth culture (L. monocytogenes [1]): without affecting the total number of colony forming unit (CFU) per ml by 8 h
– | CCC[C@H](NC(=O)/C(C#N)=C/c1cccc(Br)n1)c1ccccc1 [WP1130, reference compound] | – | 69.9 | Decrease L.m. intracellular growth | – | – | effect on Listeria growth in broth culture (L. monocytogenes [3]): no effect; IC50 (USP9x): 6600 nM; average decrease in MNV-1 titers compared to DMSO vehicle control (MNV-1): 2.0 log; solubility kinetic [4]: 3.2 µM (≈ 1.23 µg/mL)
– | CCCC(NC(=O)/C(C#N)=C/c1cccc(Br)n1)c1ccc(OCOC)cc1 (centres unmarked) [Compound 3] | slight decrease in the in vitro growth | 39.9 | Decrease L.m. intracellular growth | 39.9 | no significant toxicity | –
– | CCC(NC(=O)/C(C#N)=C/c1cccc(Br)n1)c1ccc(O)cc1 (centres unmarked) [Compound 5] | – | 25.4 | Decrease L.m. intracellular growth | – | no significant toxicity | –
